In US20210260008A1, “COMBINATION THERAPY FOR TREATING CANCER” (THE JOHNS HOPKINS UNIVERSITY, priority 2018, published 2021):
Like-named read-outs stand apart in the source and are kept apart here.

Tests used:
[1] = tested on: VEGF-β-Defensin ID8 (VDID8) syngeneic mouse ovarian surface epithelial (MOSE) cells; assay: VDID8 syngeneic ovarian cancer mouse model: tumor burden (ascites volume) and survival; settings: for median survival / overall survival / tumor burden (ascites volume): VDID8 mice; for median survival / overall survival: AZA 0.5 mg/kg i.p., 2% DFMO in water; for tumor burden (ascites volume): treated vs vehicle; for tumor burden (ascites volume) compared with combination therapy: second ascites drain, week 5 post tumor injection
Method: Mice were injected i.p. with 250,000 VEGF-DEFB ID8 MOSE cells (VDID8). 0.5 mg/kg of AZA was given i.p. 5 days a week, every other week. 2% DFMO was provided in water bottles. Mice were treated throughout the duration of the experiment. Upon 25-30% weight gain, ascites fluid was drained from mice and processed for analysis of the tumor microenvironment. FIG. 1B: Tumor burden, represented by ascites volume, 5 weeks post tumor injection. Data is from the second ascites drain procedure, the first was 4 weeks post tumor injection. Representative data (mean +/−SEM shown). n=10; four biological replicates. Data were tested for a Gaussian distribution using Shapiro-Wilk test and found not to be normal. Significance was determined using Kruskal Wallis test; statistical outliers removed using Peirce's criterion. FIG. 1C: Representative survival curve (median survival in days); n=10; four biological replicates. Significance determined using log-rank Mantel-Cox test.
Animals. Female C57BL/6NHsd wild-type (WT) mice (7-8 wk old) were purchased from Envigo International Holdings, Inc. (Indianapolis, Ind.). Mice were housed at the Johns Hopkins Kimmel Cancer Center Animal Resources Core and cared for in accordance with the policies of The Johns Hopkins University Animal Care and Use Committee and our approved animal protocol.
Syngeneic mouse model. 250,000 VEGF-β-Defensin ID8 (VDID8) syngeneic mouse ovarian surface epithelial (MOSE) cells were injected intraperitoneally into wild-type (WT) C57BL/6 mice.
Mice were treated with 0.5 mg/kg AZA/saline, Monday through Friday, every other week and continuous 2% DFMO in drinking water.
Mice were treated IP with AZA (0.5 mg/kg) or saline vehicle, DFMO (2% in water), or combination AZA and DFMO beginning three days post tumor injection (FIG. 1A).

2208L breast tumors = assay: 2208L breast tumor mouse model
Text: Significance determined using log-rank Mantel-Cox test.
Tumor size as measured once weekly in mice bearing 2208L breast tumor xenografts (week 6 post tumor implant).
Mature or activated dendritic cells in the tumor microenvironment of the 2208L breast cancer model, shown as a percentage of dendritic cells.

bulk ascites cells = assay: HPLC analysis of polyamine levels in bulk ascites cells from treated mice; assay type: in vivo, mouse; settings: bulk ascites cells from treated animals
Method: (§1) FIG. 6A-6B. DFMO treatment of VDID8 cells in vitro reduces putrescene and spermidine levels. FIG. 6A: VDID8 cells were cultured in 10% FBS RPMI+gentamicin for one week prior to beginning 10 day treatment. Cells were treated with 500 nM AZA/saline for 10 days and 5 mM DFMO/water for 3 days. AZA+DFMO cells were treated with 500 nM AZA for the first 7 days, and 500 nM AZA + 5 mM DFMO for the final 3 days of treatment. High-performance liquid chromatography (HPLC) analysis of polyamine levels in cultured, treated VDID8 cells are shown. n=3. FIG. 6B: Bulk ascites fluid was collected from individual mice treated with DFMO, AZA, or AZA+DFMO. Bulk ascites cells were lysed and washed and remaining cells were prepped for HPLC analysis of polyamine levels. n=4-10. All data were tested for a Gaussian distribution and found to be normal using Shapiro-Wilk test. Significance was determined using a one way ANOVA.
(§2) Polyamines. Polyamines were analyzed via high-performance liquid chromatography (HPLC) as previously described (36).

VDID8 cells = assay: HPLC analysis of polyamine levels in cultured, treated VDID8 cells; assay type: cell-based, mouse; settings: in vitro; 500 nM AZA 10 days, 5 mM DFMO 3 days
Method: as §1, §2

[2] = tested on: immune cells in tumor associated ascites (tumor microenvironment); assay: Flow cytometry of immune cell populations in tumor associated ascites of VDID8 mice; assay type: in vivo, mouse; settings: for Percentage of M1 macrophages (MHCII+ CD206−) / total numbers of lymphocytes in ascites: week 5; for T cell, NK cell, and IFNγ+ lymphocyte populations: week 5 post tumor injection; for MHC II positive (MHCII Hi, M1-like) macrophages: compared to vehicle; for total numbers of lymphocytes in ascites: compared to vehicle / single agents
Method: Ascites tissue harvest and processing. When ascites fluid is collected from the mice, the cells obtained represent the tumor microenvironment and can be further analyzed to help illustrate the mixed population of cells surrounding the tumor. Ascites was collected, filtered, incubated in ACK buffer (Quality Biological) to lyse red blood cells, and washed. The mononuclear cells collected were then cultured for four hours in RPMI (Corning) with 10% FBS in the presence of phorbol 12-myristate 13-acetate (PMA) and ionomycin to stimulate cells, and brefeldin A and monensin (Invitrogen 00-4975-93) to cause aggregation of secreted proteins inside the cell.
Flow cytometry. Cells were washed and blocked with FcR Blocking Reagent (Miltenyi Biotec 130-092-575) and stained for cell-surface markers including Live/Dead (eBioscience 65-0865-14), CD45 (BD Biosciences 563891), CD3 (BD Biosciences 560527), CD4 (BD Biosciences 563331), CD8 (BD Biosciences 563152), NK1.1 (BD Biosciences 562921), F4/80 (BioLegend 123113), CD11b (BioLegend 101222), MHC II (isotype control 400627; BioLegend 107619), CD206 (BioLegend 141708), CD11c (BD Biosciences 564079), Ly6C (BD Biosciences 562728), Ly6G (BD Biosciences 563005), CD80 (BD Biosciences 553769), and CD86 (BD Biosciences 558703). Cells were permeabilized and stained for intracellular IFNγ (isotype control 554686; BD Biosciences 554413). Flow cytometry acquisition was performed on an LSR II cytometer (BD Biosciences), and data were analyzed using FlowJo software version 10.2.
Flow sorting. Lysed and processed bulk ascites cells were blocked with FcR Blocking Reagent (Miltenyi Biotec 130-092-575) and stained for cell-surface markers including Live/Dead (eBioscience 65-0865-14), CD45 (BD Biosciences 563891), F4/80 (BioLegend 123113), CD11b (BioLegend 101222), MHC II (isotype control 400627; BioLegend 107619), CD206 (BioLegend 141708), and CD11c (BD Biosciences 564079). Prepared cells were suspended in PBS and sorted immediately on a BSL-2 FACSAria II. M1 macrophages were sorted on a gate as follows: CD45+ L/D− F4\80+ CD11b+ MHC II+ CD206− CD11c−. M2 macrophages were sorted on a gate as follows: CD45+ L/D− F4\80+ CD11b+ MHC II− CD206+ CD11c−.

[3] = cited from earlier work
[4] = tested on: LPS-stimulated macrophages; settings: LPS-stimulated macrophages in vitro (ref. 48); cited from earlier work

SMILES: Nc1ncn([C@@H]2O[C@H](CO)[C@@H](O)[C@H]2O)c(=O)n1 [AZA, 4-amino-1-β-D-ribofuranozyl-s-triazin-2(1H)-one]
- median survival [1]: approximately 44 days
- overall survival [1]: significantly increased survival
- tumor burden (ascites volume) [1]: decreased tumor burden
- tumor burden (ascites volume) compared with combination therapy [1]: higher tumor burden
- mature or activated dendritic cells as a percentage of dendritic cells (2208L breast tumors; tumor microenvironment of 2208L model): increases activation
- tumor burden / tumor size (2208L breast tumors; weeks 3 through 6 post tumor implant surgery): no impact on tumor size
- polyamine levels (putrescine, spermidine, spermine) (bulk ascites cells): No significant changes
- putrescine and spermidine levels (VDID8 cells): stimulatory effect
- total macrophage populations in the tumor microenvironment ([2]; ascites): consistently decreased
- Percentage of M1 macrophages (MHCII+ CD206−) ([2]; ascites): increased
- T cell, NK cell, and IFNγ+ lymphocyte populations ([2]; ascites): significant increases
- MHC II positive (MHCII Hi, M1-like) macrophages [2]: increased
- total numbers of lymphocytes in ascites [2]: significantly increased
- solubility ([3]; acetone, ethanol and methyl ketone): insoluble
- solubility ([3]; dimethylsulfoxide (DMSO)): soluble
- solubility ([3]; ethanol/water (50/50), propylene glycol and polyethylene glycol): slightly soluble
- solubility ([3]; water, water-saturated octanol, 5% dextrose in water, N-methyl-2-pyrrolidone, normal saline and 5% Tween 80 in water): sparingly soluble

SMILES: NCCCC(N)(C(=O)O)C(F)F (centres unmarked) [DFMO, 2-(difluoromethyl)-2,5-diaminopentanoic acid]
- median survival [1]: approximately 44 days
- overall survival [1]: significantly increased survival
- tumor burden (ascites volume) [1]: decreased tumor burden
- tumor burden (ascites volume) compared with combination therapy [1]: higher tumor burden
- tumor volume (2208L breast tumors; measured once weekly, week 6 post tumor implant): maintains low tumor volumes
- polyamine levels (putrescine, spermidine, spermine) (bulk ascites cells): decreased (although not significantly)
- putrescine and spermidine levels (VDID8 cells): significant decrease
- Percentage of M1 macrophages (MHCII+ CD206−) ([2]; ascites): increased
- T cell, NK cell, and IFNγ+ lymphocyte populations ([2]; ascites): significant increases
- MHC II positive (MHCII Hi, M1-like) macrophages [2]: increased
- total numbers of lymphocytes in ascites [2]: significantly increased
- NO production [4]: potentiate NO production
